Source: patent US8063071B2 (GlaxoSmithKline, LLC, priority 2007, dated 2011)
Counter-ions that a name gives are not always drawn.

How the values were obtained:
[1] = target: T1, Recombinant human IKKβ (residues 1-737) (Homo sapiens, UniProt O14920); test: IKK2 assay (TR-FRET); type: biochemical; details: ATP 1 μM final, read-out: pIC50 against IKK2 (converted)
T1 construct: Recombinant human IKKβ (residues 1-737); GST (C); made in house
T1 sequence (O14920 1-737): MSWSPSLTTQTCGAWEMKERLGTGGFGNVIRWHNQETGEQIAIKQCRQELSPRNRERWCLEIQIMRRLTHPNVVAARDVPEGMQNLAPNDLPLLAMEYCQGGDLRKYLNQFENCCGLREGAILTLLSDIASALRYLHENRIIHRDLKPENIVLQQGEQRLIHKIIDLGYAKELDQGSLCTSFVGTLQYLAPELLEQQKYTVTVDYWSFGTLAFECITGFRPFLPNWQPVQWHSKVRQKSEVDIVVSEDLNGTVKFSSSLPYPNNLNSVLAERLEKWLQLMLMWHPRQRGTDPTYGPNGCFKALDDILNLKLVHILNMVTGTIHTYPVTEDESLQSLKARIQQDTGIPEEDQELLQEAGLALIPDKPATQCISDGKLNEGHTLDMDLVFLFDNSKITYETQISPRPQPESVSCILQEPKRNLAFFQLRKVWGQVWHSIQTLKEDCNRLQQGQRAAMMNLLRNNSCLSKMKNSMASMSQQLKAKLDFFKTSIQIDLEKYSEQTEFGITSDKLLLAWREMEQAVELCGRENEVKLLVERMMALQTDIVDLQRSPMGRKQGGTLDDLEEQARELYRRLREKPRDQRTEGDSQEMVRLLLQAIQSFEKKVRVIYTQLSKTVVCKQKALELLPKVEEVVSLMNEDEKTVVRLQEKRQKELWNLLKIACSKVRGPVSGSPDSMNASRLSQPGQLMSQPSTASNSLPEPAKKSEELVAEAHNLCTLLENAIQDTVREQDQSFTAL
How it was run: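 TR-FRET readout (665 nm over 620 nm Eu reference) of GST-IB Ser32/36 phosphorylation after 60 min detection. Reaction: 1 μM ATP, 25 nM substrate, 0.5-5 nM GST-fused IKKβ 1-737 from baculovirus, pH 7.4 HEPES buffer, 1.7% DMSO, 15 min room temperature, EDTA-terminated.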

[2] = tested on: human monocyte stimulated cytokine production (TNF-α); test: Monocyte assay (LPS-stimulated TNF-α production); type: cell-based; details: for IC50: 24 h, 200 ng/mL LPS, TNF-α by ELISA; for inhibition at 0.3 µM: read-out: inhibition at 300 nM in the monocyte assay
How it was run: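 TNF-α release was measured by ELISA after 24 hrs at 37 C. Cells were stimulated with 200 ng/mL E. coli LPS, with compound added 30 minutes beforehand (0.1% DMSO vehicle). Cells were Ficoll/MACS-isolated CD14+ human monocytes adhered at 1×10^6 cells/mL, and viability was checked by trypan blue.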

Row | IC50 [1] [µM] | IC50 [2] [µM] | SMILES | inhibition at 0.3 µM [2] [%]
1 | ≤ 10 | ≤ 1.5 | CCS(=O)(=O)N1CCC(c2c[nH]c3c(C(N)=O)cc(-c4csc(CN(C)Cc5ccncc5)c4)cc23)CC1 [Example 78, 3-[1-(ethylsulfonyl)-4-piperidinyl]-5-(5-{[methyl(4-pyridinylmethyl)amino]methyl}-3-thienyl)-1H-indole-7-carboxamide trifluoroacetate] | 
2 | ≤ 10 |  | CCS(=O)(=O)N1CCC(c2c[nH]c3c(C(N)=O)cc(-c4csc(CN(C)CC5CCN(C(C)C)C5)c4)cc23)CC1 (centres unmarked) [Example 79, 3-[1-(ethylsulfonyl)-4-piperidinyl]-5-{5-[(methyl{[1-(1-methylethyl)-3-pyrrolidinyl]methyl}amino)methyl]-3-thienyl}-1H-indole-7-carboxamide trifluoroacetate] | 0 to 60
3 | ≤ 10 |  | CCS(=O)(=O)N1CCC(c2c[nH]c3c(C(N)=O)cc(-c4csc(CN(C)Cc5cccs5)c4)cc23)CC1 [Example 80, 3-[1-(ethylsulfonyl)-4-piperidinyl]-5-(5-{[methyl(2-thienylmethyl)amino]methyl}-3-thienyl)-1H-indole-7-carboxamide trifluoroacetate] | 0 to 60
4 | ≤ 10 |  | CCS(=O)(=O)N1CCC(c2c[nH]c3c(C(N)=O)cc(-c4csc(CN(C)C(C)c5cccs5)c4)cc23)CC1 (centres unmarked) [Example 81, 3-[1-(ethylsulfonyl)-4-piperidinyl]-5-[5-({methyl[1-(2-thienyl)ethyl]amino}methyl)-3-thienyl]-1H-indole-7-carboxamide trifluoroacetate] | 0 to 60
5 | ≤ 10 | ≤ 1.5 | CCS(=O)(=O)N1CCC(c2c[nH]c3c(C(N)=O)cc(-c4csc(CN(C)Cc5ccsc5)c4)cc23)CC1 [Example 82, 3-[1-(ethylsulfonyl)-4-piperidinyl]-5-(5-{[methyl(3-thienylmethyl)amino]methyl}-1′-3-thienyl)-1H-indole-7-carboxamide trifluoroacetate] | 
6 | ≤ 10 | ≤ 1.5 | CCS(=O)(=O)N1CCC(c2c[nH]c3c(C(N)=O)cc(-c4csc(CN(C)CC5CCOCC5)c4)cc23)CC1 [Example 83, 3-[1-(ethylsulfonyl)-4-piperidinyl]-5-(5-{[methyl(tetrahydro-2H-pyran-4-ylmethyl)amino]methyl}-3-thienyl)-1H-indole-7-carboxamide trifluoroacetate] | 
7 | ≤ 10 |  | CCS(=O)(=O)N1CCC(c2c[nH]c3c(C(N)=O)cc(-c4csc(CN(C)Cc5cccnc5)c4)cc23)CC1 [Example 84, 3-[1-(ethylsulfonyl)-4-piperidinyl]-5-(5-{[methyl(3-pyridinylmethyl)amino]methyl}-3-thienyl)-1H-indole-7-carboxamide trifluoroacetate] | 0 to 60
8 | ≤ 10 |  | CCS(=O)(=O)N1CCC(c2c[nH]c3c(C(N)=O)cc(-c4csc(CN(C)Cc5ccncn5)c4)cc23)CC1 [Example 85, 3-[1-(ethylsulfonyl)-4-piperidinyl]-5-(5-{[methyl(4-pyrimidinylmethyl)amino]methyl}-3-thienyl)-1H-indole-7-carboxamide trifluoroacetate] | 0 to 60
9 | ≤ 10 | ≤ 1.5 | CCS(=O)(=O)N1CCC(c2c[nH]c3c(C(N)=O)cc(-c4csc(CN(C)CCOC)c4)cc23)CC1 [Example 86, 3-[1-(ethylsulfonyl)-4-piperidinyl]-5-[5-({methyl[2-(methyloxy)ethyl]amino}methyl)-3-thienyl]-1H-indole-7-carboxamide trifluoroacetate] | 
10 | ≤ 10 | ≤ 1.5 | CCS(=O)(=O)N1CCC(c2c[nH]c3c(C(N)=O)cc(-c4csc(CN(C)C(C)C)c4)cc23)CC1 [Example 88, 3-[1-(ethylsulfonyl)-4-piperidinyl]-5-(5-{[methyl(1-methylethyl)amino]methyl}-3-thienyl)-1H-indole-7-carboxamide trifluoroacetate] | 
11 | ≤ 10 | ≤ 1.5 | CCCC1CCCN1Cc1cc(-c2cc(C(N)=O)c3[nH]cc(C4CCN(S(=O)(=O)CC)CC4)c3c2)cs1 (centres unmarked) [Example 89, 3-[1-(ethylsulfonyl)-4-piperidinyl]-5-{5-[(2-propyl-1-pyrrolidinyl)methyl]-3-thienyl}-1H-indole-7-carboxamide] | 
12 | ≤ 10 |  | CCS(=O)(=O)N1CCC(c2c[nH]c3c(C(N)=O)cc(-c4csc(CN5CCCC5c5cccnc5)c4)cc23)CC1 (centres unmarked) [Example 90, 3-[1-(ethylsulfonyl)-4-piperidinyl]-5-(5-{[2-(3-pyridinyl)-1-pyrrolidinyl]methyl}-3-thienyl)-1H-indole-7-carboxamide] | 0 to 60
13 | ≤ 10 |  | CCS(=O)(=O)N1CCC(c2c[nH]c3c(C(N)=O)cc(-c4csc(CN5CCCC5C(C)(C)C)c4)cc23)CC1 (centres unmarked) [Example 91, 5-(5-{[2-(1,1-dimethylethyl)-1-pyrrolidinyl]methyl}-3-thienyl)-3-[1-(ethylsulfonyl)-4-piperidinyl]-1H-indole-7-carboxamide trifluoroacetate] | 0 to 60
14 | ≤ 10 | ≤ 1.5 | CCC1CCCN1Cc1cc(-c2cc(C(N)=O)c3[nH]cc(C4CCN(S(=O)(=O)CC)CC4)c3c2)cs1 (centres unmarked) [Example 92, 5-{5-[(2-ethyl-1-pyrrolidinyl)methyl]-3-thienyl}-3-[1-(ethylsulfonyl)-4-piperidinyl]-1H-indole-7-carboxamide] | 
15 | ≤ 10 |  | CCS(=O)(=O)N1CCC(c2c[nH]c3c(C(N)=O)cc(-c4csc(CN5CCCC5C(C)C)c4)cc23)CC1 (centres unmarked) [Example 94, 3-[1-(ethylsulfonyl)-4-piperidinyl]-5-(5-{[2-(1-methylethyl)-1-pyrrolidinyl]methyl}-3-thienyl)-1H-indole-7-carboxamide] | 0 to 60
16 | ≤ 10 | ≤ 1.5 | CCS(=O)(=O)N1CCC(c2c[nH]c3c(C(N)=O)cc(-c4csc(CN5CCC[C@H]5COC)c4)cc23)CC1 [Example 95, 3-[1-(ethylsulfonyl)-4-piperidinyl]-5-[5-({(2S)-2-[(methyloxy)methyl]-1-pyrrolidinyl}methyl)-3-thienyl]-1H-indole-7-carboxamide] | 
17 | ≤ 10 | ≤ 1.5 | CCS(=O)(=O)N1CCC(c2c[nH]c3c(C(N)=O)cc(-c4csc(CN(C)C5CCCCC5)c4)cc23)CC1 [Example 96, 5-(5-{[cyclohexyl(methyl)amino]methyl}-3-thienyl)-3-[1-(ethylsulfonyl)-4-piperidinyl]-1H-indole-7-carboxamide] | 
18 | ≤ 10 | ≤ 1.5 | CCCN(C)Cc1cc(-c2cc(C(N)=O)c3[nH]cc(C4CCN(S(=O)(=O)C(C)C)CC4)c3c2)cs1 [Example 100, 3-{1-[(1-methylethyl)sulfonyl]-4-piperidinyl}-5-(5-{[methyl(propyl)amino]methyl}-3-thienyl)-1H-indole-7-carboxamide trifluoroacetate] | 
19 | ≤ 10 | ≤ 1.5 | CCN(C)Cc1cc(-c2cc(C(N)=O)c3[nH]cc(C4CCN(S(=O)(=O)C(C)C)CC4)c3c2)cs1 [Example 101, 5-(5-{[ethyl(methyl)amino]methyl}-3-thienyl)-3-{1-[(1-methylethyl)sulfonyl]-4-piperidinyl}-1H-indole-7-carboxamide] | 
20 | ≤ 10 | ≤ 1.5 | COCCN(C)Cc1cc(-c2cc(C(N)=O)c3[nH]cc(C4CCN(S(=O)(=O)C(C)C)CC4)c3c2)cs1 [Example 102, 3-{1-[(1-methylethyl)sulfonyl]-4-piperidinyl}-5-[5-({methyl[2-(methyloxy)ethyl]amino}methyl)-3-thienyl]-1H-indole-7-carboxamide] | 
21 | ≤ 10 | ≤ 1.5 | CCS(=O)(=O)N1CCC(c2c[nH]c3c(C(N)=O)cc(-c4ccc(CNC)s4)cc23)CC1 [Example 103, 3-[1-(ethylsulfonyl)-4-piperidinyl]-5-{5-[(methylamino)methyl]-2-thienyl}-1H-indole-7-carboxamide] | 
22 | ≤ 10 | ≤ 1.5 | CCS(=O)(=O)N1CCC(c2c[nH]c3c(C(N)=O)cc(-c4csc(CN5CCCC5C)c4)cc23)CC1 (centres unmarked) [Example 104, 3-[1-(ethylsulfonyl)-4-piperidinyl]-5-{5-[(2-methyl-1-pyrrolidinyl)methyl]-3-thienyl}-1H-indole-7-carboxamide trifluoroacetate] | 
